Measured values: patent US20250019385A1, “SPIROCYCLIC ANNULATED 2-AMINO-3-CYANO THIOPHENES AND DERIVATIVES FOR THE TREATMENT OF CANCER” (Boehringer Ingelheim International GmbH, priority 2023, published 2025)

System: Ba/F3 cells KRAS G12C
Test: Ba/F3 proliferation assay (KRAS G12C)
Assay type: cell-based
Conditions: Mus musculus, BaF3, 72 h, AlamarBlue viability
Method in brief: (§1)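 Ba/F3 cells retrovirally transduced with KRAS G12 mutant, puromycin-selected, grown IL-3-independent; seeded in RPMI-1640 + 10% FCS without IL-3. Logarithmic compound dose series in duplicate, 72 h at 37° C., AlamarBlue fluorescence as % of DMSO control; IC50 from four-parameter non-linear regression.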
Work on `C[C@H](Oc1nc(-c2onc3c2CCC[C@@]32CCCc3sc(N)c(C#N)c32)nc2c1[nH]c(=O)n2[C@@H]1CCCOC1)[C@@H]1CCCN1C` [I-13] yielded an IC50 of 38 nM.
In the case of `CO[C@@H]1C[C@@H]([C@H](C)Oc2nc(-c3onc4c3CCC[C@@]43CCCc4sc(N)c(C#N)c43)nc3c2n(C)c(=O)n3[C@@H]2CCOC2)N(C)C1` [I-3], the IC50 is reported as 6 nM.
Molecule `C[C@H](Oc1nc(-c2noc3c2CCC[C@@]32CCCc3sc(N)c(C#N)c32)nc2c1CN(C1COC1)C[C@]21CCOC1)[C@@H]1CCCN1C` [II-12] has an IC50 of 2 nM.
With `C[C@H](Oc1nc(-c2onc3c2CCC[C@@]32CCCc3sc(N)c(C#N)c32)nc2c1CN(C1COC1)C[C@]21CCOC1)[C@@H]1CCCN1C` [I-56] the IC50 was 4 nM.
With `CO[C@H]1C[C@@H](n2c(=O)n(C)c3c(O[C@@H](C)[C@@H]4CCCN4C)nc(-c4onc5c4CCC[C@@]54CCCc5sc(N)c(C#N)c54)nc32)C1` [I-31] the IC50 was 52 nM.
`CCn1c(=O)n([C@@H]2CCCOC2)c2nc(-c3onc4c3CCC[C@@]43CCCc4sc(N)c(C#N)c43)nc(OCC3(CN4CCCC4)CC3)c21` [I-35] gave an IC50 of 177 nM.
In the case of `C[C@H](Oc1nc(-c2onc3c2CCC[C@@]32CCCc3sc(N)c(C#N)c32)nc2c1n(C)c(=O)n2[C@@H]1CCOC1)[C@@H]1C[C@@H](F)CN1C` [I-22], the IC50 is reported as 10 nM.
Molecule `C[C@H](Oc1nc(-c2onc3c2CCC[C@@]32CCCc3sc(N)c(C#N)c32)nc2c1n(C)c(=O)n2[C@@H]1CCOC1)[C@@H]1[C@@H](F)CCN1C` [I-5] has an IC50 of 31 nM.
`C[C@H](Oc1nc(-c2onc3c2CCC[C@@]32CCCc3sc(N)c(C#N)c32)nc2c1n(C)c(=O)n2[C@@H]1CCOC1)[C@@H]1C[C@H](F)CN1C` [I-27] showed an IC50 of 26 nM.
`CC(C)n1c(=O)n([C@@H]2CCOC2)c2nc(-c3onc4c3CCC[C@@]43CCCc4sc(N)c(C#N)c43)nc(O[C@@H](C)[C@@H]3CCCN3C)c21` [I-32] showed an IC50 of 23 nM.

System: Ba/F3 cells KRAS G12V
Test: Ba/F3 proliferation assay (KRAS G12V)
Assay type: cell-based
Conditions: Mus musculus, BaF3, 72 h, AlamarBlue viability
Method in brief: as §1
`C[C@H](Oc1nc(-c2onc3c2CCC[C@@]32CCCc3sc(N)c(C#N)c32)nc2c1[nH]c(=O)n2[C@@H]1CCCOC1)[C@@H]1CCCN1C` [I-13] gave an IC50 of 16 nM.
In the case of `CO[C@@H]1C[C@@H]([C@H](C)Oc2nc(-c3onc4c3CCC[C@@]43CCCc4sc(N)c(C#N)c43)nc3c2n(C)c(=O)n3[C@@H]2CCOC2)N(C)C1` [I-3], the IC50 is reported as 3 nM.
Molecule `C[C@H](Oc1nc(-c2noc3c2CCC[C@@]32CCCc3sc(N)c(C#N)c32)nc2c1CN(C1COC1)C[C@]21CCOC1)[C@@H]1CCCN1C` [II-12] has an IC50 of 1 nM.
With `C[C@H](Oc1nc(-c2onc3c2CCC[C@@]32CCCc3sc(N)c(C#N)c32)nc2c1CN(C1COC1)C[C@]21CCOC1)[C@@H]1CCCN1C` [I-56] the IC50 was 2 nM.
`CO[C@H]1C[C@@H](n2c(=O)n(C)c3c(O[C@@H](C)[C@@H]4CCCN4C)nc(-c4onc5c4CCC[C@@]54CCCc5sc(N)c(C#N)c54)nc32)C1` [I-31] showed an IC50 of 23 nM.
With `CCn1c(=O)n([C@@H]2CCCOC2)c2nc(-c3onc4c3CCC[C@@]43CCCc4sc(N)c(C#N)c43)nc(OCC3(CN4CCCC4)CC3)c21` [I-35] the IC50 was 104 nM.
Work on `C[C@H](Oc1nc(-c2onc3c2CCC[C@@]32CCCc3sc(N)c(C#N)c32)nc2c1n(C)c(=O)n2[C@@H]1CCOC1)[C@@H]1C[C@@H](F)CN1C` [I-22] yielded an IC50 of 4 nM.
`C[C@H](Oc1nc(-c2onc3c2CCC[C@@]32CCCc3sc(N)c(C#N)c32)nc2c1n(C)c(=O)n2[C@@H]1CCOC1)[C@@H]1[C@@H](F)CCN1C` [I-5] gave an IC50 of 14 nM.
In the case of `C[C@H](Oc1nc(-c2onc3c2CCC[C@@]32CCCc3sc(N)c(C#N)c32)nc2c1n(C)c(=O)n2[C@@H]1CCOC1)[C@@H]1C[C@H](F)CN1C` [I-27], the IC50 is reported as 13 nM.
`CC(C)n1c(=O)n([C@@H]2CCOC2)c2nc(-c3onc4c3CCC[C@@]43CCCc4sc(N)c(C#N)c43)nc(O[C@@H](C)[C@@H]3CCCN3C)c21` [I-32] showed an IC50 of 13 nM.

System: LOVO cells
Test: LOVO CTG proliferation assay (120 h) (CRC, G13D)
Assay type: cell-based
Conditions: Homo sapiens
Description: LOVO cells (ATCC No. CCL-229) are dispensed into black 384-well plates, flat and clear bottom (Greiner, PNr. 781091) at a density of 1000 cells per well in 60 μl DMEM (Sigma D6429)+10% FCS (fetal calf serum, HyClone, SH30084.03). Cells are incubated overnight at 37° C. in a humidified tissue culture incubator at 5% CO2. Compounds (10 mM stock in DMSO) are added at logarithmic dose series using the ECHO acoustic liquid handler system (Beckman Coulter), normalizing for added DMSO and including DMSO controls. All compound treatments are performed in technical duplicates. For the TO time point measurement, untreated cells are analyzed at the time of compound addition. Plates are incubated for 120 h, and cell viability is measured using CellTiter-Glo luminescent cell viability reagent (Promega product code G7570). Viability (stated as percent of control) is defined as relative luminescence units RLU of each well divided by the RLU of cells in DMSO controls. IC50 values are determined from viability measurements by non-linear regression using a four-parameter model.
IC50 values of representative compounds according to the invention measured with these assays in the indicated cell lines are presented in Table 46.
For `C[C@H](Oc1nc(-c2onc3c2CCC[C@@]32CCCc3sc(N)c(C#N)c32)nc2c1[nH]c(=O)n2[C@@H]1CCCOC1)[C@@H]1CCCN1C` [I-13], the IC50 was 39 nM.
For `CO[C@@H]1C[C@@H]([C@H](C)Oc2nc(-c3onc4c3CCC[C@@]43CCCc4sc(N)c(C#N)c43)nc3c2n(C)c(=O)n3[C@@H]2CCOC2)N(C)C1` [I-3], the IC50 was 15 nM.
`C[C@H](Oc1nc(-c2noc3c2CCC[C@@]32CCCc3sc(N)c(C#N)c32)nc2c1CN(C1COC1)C[C@]21CCOC1)[C@@H]1CCCN1C` [II-12] showed an IC50 of 71 nM.
In the case of `C[C@H](Oc1nc(-c2onc3c2CCC[C@@]32CCCc3sc(N)c(C#N)c32)nc2c1CN(C1COC1)C[C@]21CCOC1)[C@@H]1CCCN1C` [I-56], the IC50 is reported as 43 nM.
`CO[C@H]1C[C@@H](n2c(=O)n(C)c3c(O[C@@H](C)[C@@H]4CCCN4C)nc(-c4onc5c4CCC[C@@]54CCCc5sc(N)c(C#N)c54)nc32)C1` [I-31] gave an IC50 of 36 nM.
With `CCn1c(=O)n([C@@H]2CCCOC2)c2nc(-c3onc4c3CCC[C@@]43CCCc4sc(N)c(C#N)c43)nc(OCC3(CN4CCCC4)CC3)c21` [I-35] the IC50 was 120 nM.
`C[C@H](Oc1nc(-c2onc3c2CCC[C@@]32CCCc3sc(N)c(C#N)c32)nc2c1n(C)c(=O)n2[C@@H]1CCOC1)[C@@H]1C[C@@H](F)CN1C` [I-22] gave an IC50 of 43 nM.
Work on `C[C@H](Oc1nc(-c2onc3c2CCC[C@@]32CCCc3sc(N)c(C#N)c32)nc2c1n(C)c(=O)n2[C@@H]1CCOC1)[C@@H]1[C@@H](F)CCN1C` [I-5] yielded an IC50 of 29 nM.
Work on `C[C@H](Oc1nc(-c2onc3c2CCC[C@@]32CCCc3sc(N)c(C#N)c32)nc2c1n(C)c(=O)n2[C@@H]1CCOC1)[C@@H]1C[C@H](F)CN1C` [I-27] yielded an IC50 of 52 nM.
In the case of `CC(C)n1c(=O)n([C@@H]2CCOC2)c2nc(-c3onc4c3CCC[C@@]43CCCc4sc(N)c(C#N)c43)nc(O[C@@H](C)[C@@H]3CCCN3C)c21` [I-32], the IC50 is reported as 25 nM.

System: not listed separately
Test: Plasma protein binding assay (PPB), equilibrium dialysis
Assay type: in vitro ADME
Conditions: bovine, 10% FCS in PBS, read-out: PPB 10% FCS (% fu)
Description: Binding of test compounds to plasma was determined using equilibrium dialysis (ED) and quantitative mass spectrometry interfaced with liquid chromatography (LC-MS). In brief, ED was performed with dialysis devices consisting of two chambers separated by a semipermeable membrane with a molecular weight cut-off of 5-10 kg/mol. One chamber was filled with 10% FCS in PBS containing 1-10 μmol/L test compound and the other chamber was filled with phosphate-buffer saline (PBS) with or without dextran. The dialysis chamber was incubated for 3-5 hours at 37° C. After incubation, protein was precipitated from aliquots of each chamber and the concentration of test compound in the supernatant of the plasma-containing compartment (cserum) and of the buffer-containing compartment (cbuffer) was determined by LC-MS. The fraction of unbound test compound (not bound to plasma) (f) was calculated according to the following equation: […]
With `C[C@H](Oc1nc(-c2onc3c2CCC[C@@]32CCCc3sc(N)c(C#N)c32)nc2c1[nH]c(=O)n2[C@@H]1CCCOC1)[C@@H]1CCCN1C` [I-13] the fraction unbound was 0.18.
`CO[C@@H]1C[C@@H]([C@H](C)Oc2nc(-c3onc4c3CCC[C@@]43CCCc4sc(N)c(C#N)c43)nc3c2n(C)c(=O)n3[C@@H]2CCOC2)N(C)C1` [I-3] showed a fraction unbound of 0.11.
`C[C@H](Oc1nc(-c2noc3c2CCC[C@@]32CCCc3sc(N)c(C#N)c32)nc2c1CN(C1COC1)C[C@]21CCOC1)[C@@H]1CCCN1C` [II-12] gave a fraction unbound of 0.19.
Work on `C[C@H](Oc1nc(-c2onc3c2CCC[C@@]32CCCc3sc(N)c(C#N)c32)nc2c1CN(C1COC1)C[C@]21CCOC1)[C@@H]1CCCN1C` [I-56] yielded a fraction unbound of 0.3.
Work on `CO[C@H]1C[C@@H](n2c(=O)n(C)c3c(O[C@@H](C)[C@@H]4CCCN4C)nc(-c4onc5c4CCC[C@@]54CCCc5sc(N)c(C#N)c54)nc32)C1` [I-31] yielded a fraction unbound of 0.09.
For `CCn1c(=O)n([C@@H]2CCCOC2)c2nc(-c3onc4c3CCC[C@@]43CCCc4sc(N)c(C#N)c43)nc(OCC3(CN4CCCC4)CC3)c21` [I-35], the fraction unbound was 0.07.
Molecule `C[C@H](Oc1nc(-c2onc3c2CCC[C@@]32CCCc3sc(N)c(C#N)c32)nc2c1n(C)c(=O)n2[C@@H]1CCOC1)[C@@H]1C[C@@H](F)CN1C` [I-22] has a fraction unbound of 0.19.
Molecule `C[C@H](Oc1nc(-c2onc3c2CCC[C@@]32CCCc3sc(N)c(C#N)c32)nc2c1n(C)c(=O)n2[C@@H]1CCOC1)[C@@H]1[C@@H](F)CCN1C` [I-5] has a fraction unbound of 0.03.
`C[C@H](Oc1nc(-c2onc3c2CCC[C@@]32CCCc3sc(N)c(C#N)c32)nc2c1n(C)c(=O)n2[C@@H]1CCOC1)[C@@H]1C[C@H](F)CN1C` [I-27] gave a fraction unbound of 0.15.
Work on `CC(C)n1c(=O)n([C@@H]2CCOC2)c2nc(-c3onc4c3CCC[C@@]43CCCc4sc(N)c(C#N)c43)nc(O[C@@H](C)[C@@H]3CCCN3C)c21` [I-32] yielded a fraction unbound of 0.07.
